# Patent US11576911B2, “Composition and method for treatment of depression and psychosis in humans” (Glytech LLC, priority 2012, dated 2023)
# Where two headings read alike, the source gives them in different places.
# What was measured:
# Male C57Bl/6J mice [1] = assay: Elevated plus maze (EPM), DOI 2 mg/kg in all conditions; type: in vivo; conditions: for Distance Traveled Open (DTO) Mean / Percent open (PCT) Mean: Table 1
# Male BalbC/J mice = assay: Rodent forced swim test (FST), immobility time; type: in vivo
# Text: Male BalbC/J mice (8 weeks old) from Jackson Laboratories (Bar Harbor, Me.) were used. Upon receipt, mice were assigned unique identification numbers (tail marked) and were group housed in OPTImice cages. All animals were acclimated to the colony room for 1 week prior to testing. During the period of acclimation, animals were examined on a regular basis, handled, and weighed to assure adequate health and suitability. Animals were maintained on a 12/12 light/dark cycle. The room temperature was maintained between 20 and 23° C. with a relative humidity maintained between 30% and 70%. Chow and water were provided ad libitum for the duration of the study. All testing was performed during the animal's light cycle phase.
# Mice were acclimated to the test room at least 1 hour prior to commencing the test. The forced swimming test consisted of one 6-minute session of forced swimming in individual opaque cylinders (15 cm tall×10 cm wide, 1000 ml beakers) containing fresh tap water at a temperature of 23±2° C. and a depth of 12 cm (approximately 800 ml) for each test animal. The time the animal spent immobile was recorded over the 6 min trial. Every 1 min the cumulative immobility time was recorded from the start of the session and noted on the study data record sheet. Immobility was defined as the postural position of floating in the water. The animals were generally observed with the back slightly hunched and the head above water with no movements or with small stabilizing movements of the limbs. After the swim test, each animal was placed in a pre-heated cage with a heating pad and allowed to dry.
# The main variable used to represent immobility in this test was the total time immobile during the 6-min test period. Statistics were performed by analysis of variance (ANOVA) with Dunnett post-hoc testing vs. the control condition or by t-test as appropriate.
# Sertraline, a known antidepressant, is used as a positive control.
# For this study, further NMDAR antagonist compounds were tested for their ability to reduce immobility time in the rodent FST test, indicative of potential anti-depressant effects, and further 5-HT2AR antagonists were tested for their ability to produce reductions of time spent in the open arms of the EPM, indicative to potential liability to induce anxiety, akathisia and suicidality in humans
# [2] = Pharmacokinetics of D-cycloserine in rodents (plasma, IP); type: in vivo, mice
# Description: For this study, male C57BL/6J mice (8 weeks old) from Jackson Laboratories (Bar Harbor, Me.) were used.
# For each treatment group a total of 12 mice were dosed: 4 mice were collected at 30, 60 and 120 min. Mean plasma level was computed over this time period.
# Male C57Bl/6J mice [3] = conditions: previously demonstrated, cited from earlier work
# [4] = cited from earlier work; for Serum concentration: mean dose 8.8 mg/kg, patients (Hung et al.)
# [5] = acidic gastric conditions, gastric emptying up to 3 hours; cited from earlier work
# [6] = Pharmacokinetics of D-cycloserine in humans (literature)
smiles,measurement,setting,value
"N[C@@H]1CON=C1O [D-cycloserine, 3-Isoxazolidinone, 4-amino-, (4R)-(9CI)]","Reversal of the effects of MDL100,907 in the EPM, in words","Male C57Bl/6J mice [1]; DCS 300 mg/kg vs 30 mg/kg with MDL100,907 (Table 1 lines 6,7)","significantly reverses the effects of MDL100,907 at a dose of 300 mg/kg, but not 30 mg/kg"
same,"Effect in the EPM in the presence of aripiprazole, in words",Male C57Bl/6J mice [1]; DCS 300 mg/kg with aripiprazole 1 mg/kg,no significant effect
same,"Reversal of the effects of lurasidone in the EPM, in words",Male C57Bl/6J mice [1]; DCS 300 mg/kg with lurasidone 0.1-0.3 mg/kg,significantly reverses the effects of lurasidone
same,"Reversal of the effects of quetiapine in the EPM, in words",Male C57Bl/6J mice [1]; DCS 300 mg/kg with quetiapine 30 mg/kg,reversed at trend level
same,Distance Traveled Open (DTO) Mean,Male C57Bl/6J mice [1]; 30 mg/kg ip alone,295.8
same,Percent open (PCT) Mean,Male C57Bl/6J mice [1]; 30 mg/kg ip alone,44.6%
same,Distance Traveled Open (DTO) Mean,Male C57Bl/6J mice [1]; 300 mg/kg ip alone,287.5
same,Percent open (PCT) Mean,Male C57Bl/6J mice [1]; 300 mg/kg ip alone,45.4%
same,Mean distance travelled in the open arm of the EPM,"Male C57Bl/6J mice [1]; Table 6, 300 mg/kg, DOI 2 mg/kg added",369.70
same,"Effect on distance travelled in open arm / % time in open arm of EPM, in words","Male C57Bl/6J mice [1]; agent alone vs control, doses of Tables 1 and 2",selectively increases % time in open arms at a dose of 300 mg/kg but not at a dose of 30 mg/kg
same,"Effect on immobility in the forced swim test, in words",Male BalbC/J mice; DCS 30 mg/kg in combination with lurasidone,did not significantly reduce immobility
same,"Effect in the forced swim test assay, in words","Male BalbC/J mice; DCS 30 mg/kg, IP or PO (FIGS. 1 and 2)",no significant effect
same,"Effect in the forced swim test assay, in words","Male BalbC/J mice; DCS 100 mg/kg or above, PO or IP (FIGS. 1 and 2)",highly significant
same,"Effect on immobility in the forced swim test, in words",Male BalbC/J mice; DCS 300 mg/kg in combination with aripiprazole,did not significantly reduce immobility
same,"Effect on immobility in the forced swim test, in words",Male BalbC/J mice; DCS 300 mg/kg in combination with brexpiprazole,significantly reduced immobility
same,"Effect on immobility in the forced swim test, in words",Male BalbC/J mice; DCS 300 mg/kg in combination with lurasidone 0.2 to 3 mg/kg,significantly reduced immobility
same,Mean plasma level over 30-120 min,"[2]; 30 mg/kg IP, mice",below 25 microgram/mL
same,Plasma levels over 30-120 min,"[2]; doses of 100 mg/kg or above IP, mice",greater than 25 microgram/mL
same,Maximum tolerated blood level,[2]; suggested from maximum tolerated dose,approximately 125 ug/mL
same,"Distance travelled in the open arm and % time in the open arms, in words","Male C57Bl/6J mice [3]; DCS 300 mg/kg in combination with EMD281,014",numerical increases
same,"Distance travelled in the open arm and % time in the open arms, in words","Male C57Bl/6J mice [3]; DCS 300 mg/kg in the presence of MDL100,907",significantly increased
same,Serum concentration,[4]; 2 hr after dosing,19.7 microgram/mL
same,Serum concentration,[4]; 6 hr after dosing,18.1 microgram/mL
same,"AUC over 24 hr, median","[4]; single 500 mg dose, fasting, humans (Zhu et al.)",214 microgram-hr/mL
same,Hydrolysis of orally administered D-cycloserine during gastric emptying,[5],up to 50%
same,Sustained blood levels,"[6]; 500 mg/day, human PK studies",below 25 microgram/mL
same,"Sustained plasma level, median","[6]; corresponding to AUC over 24 hr, 500 mg (Zhu et al.)",8.9 microgram/mL
same,Human dose required to produce a serum level in excess of 25 microgram/mL,[6]; from dose-serum concentration relationship of Hung et al.,exceeding 10 mg/kg
